Where two headings read alike, the source gives them in different places.
Legend:
[1] = Rat pharmacokinetics, oral gavage; type: in vivo, Sprague-Dawley rats; set-up: AUClast/D: unit not given here; settings: for MRT inf: read-out: MRTInf—obs; for Tmax: read-out: Tmax
Method: Groups, Dosing, and Collection. […] Three rats per group were perorally administered 20, 60, or 200 mg Compound 1 free acid or 25, 75, or 250 mg in 0.5% methylcellulose in Saline for a final concentration of 2, 6, or 20 mg/mL Compound 1 free acid or 2.5, 7.5, or […]. Plasma was collected at 5 min, 15 min, 30 min, 1 hour, 2 hour, 4 hour, 6 hour, 8 hour, and 24 hour post dose via jugular vein.
Stock and Dose Prep. Stock solutions were prepared by dissolving 2.47 mg of Compound 1 (free acid) in 2.470 mL DMSO with vortexing to obtain 1 mg/mL solution of Compound 1 (free acid), or 2.09 mg of Compound 1 (Tris salt) in […] DMSO with vortexing to obtain 1 mg/mL solution of Compound 1 (Tris salt). Dosing solutions were prepared by vortexing/sonicating the following solids in solvent:
LC MS-MS Analysis. Liquid Chromatography with tandem mass spectrometry was used to determine plasma concentrations of Compound 1 Free Acid and Compound 1 Tris Salt in plasma samples collected at prescribed time points.
Appropriate serial concentrations of working solutions were achieved by diluting stock solution of analyte with 50% acetonitrile in water solution. Five μL of working solutions (10, 20, 50, 100, 500, 1000, 5000, 8000, 10000 ng/mL) were added to 50 μL of the blank male SD Rat plasma to achieve calibration standards of 1˜1000 ng/ml (1, 2, 5, 10, 50, 100, 500, 800, 1000 ng/mL) in a total volume of 55 μL. Five quality control (QC) samples at 2 ng/mL, 5 ng/mL, 10 ng/mL, 50 ng/mL and 800 ng/mL for plasma were prepared independently of those used for the calibration curves. These QC samples were prepared on the day of analysis in the same way as calibration standards. 55 μL standards, 55 μL QC samples and 55 μL unknown samples (50 μL plasma/blood with 5 μL blank solution) were added to 200 μL of methanol containing internal standard (dexamethasone) mixture for precipitating protein respectively, and vortexed for 30 seconds. After centrifugation at 4° C. and 4000 rpm for 15 minutes. The supernatant was diluted with water with a ratio of 1:2. 2 μL of the supernatant was injected into the LC/MS/MS system for quantitative analysis.
Instrumentation included HALO 90A C18 2.7 μm 2.1×50 mm HPLC column, a Prominence degasser DGU-20A5R(C), liquid chromatograph Shimadzu LC-30AD with communications bus module CBM-20A and Auto SIL-20AC HT; and an AB Sciex Triple Quad 5500 LC/MS/MS instrument.

[2] = 28-day repeat-dose toxicity study in rats; type: in vivo; settings: Sprague Dawley, rat; for NOAEL at 28 days: in vivo; for AUC(0-t) / Cmax: plasma; for AUC(0-t): read-out: AUC0-24 at NOAEL; for Cmax: read-out: Cmax at NOAEL
Method: Compound 1 was administered to Sprague Dawley rats by oral gavage at doses of 25, 75, and 250 mg/kg/day (females) and 40, 120, and 400 mg/kg/day (males) for 28 days. Compound 1-related mortality occurred in 8 of the 15 toxicity males administered 400 mg/kg/day beginning on Day 8 through 24. […] Target tissues included bone marrow, spleen, thymus, liver, lymph nodes, epididymides, seminal vesicles, prostate, testes, uterus, and ovaries.
(§1) Compound 1 tris salt was evaluated for safety in 7- and 28-day studies in rats and dogs. […] The NOAELs for this rat study were 120 mg/kg/day for males and 75 mg/kg/day for females. […] The NOAEL determined in the 28-day dog GLP study was 150 mg/kg/day. These correspond to human equivalent doses (HEDs) of: • Rat: 75 mg/kg×0.16=12 mg/kg • Dog: 150 mg/kg×0.54=81 mg/kg

[3] = in vivo; set-up: species or system beagle dogs; settings: both sexes, beagle, dog
Method: Compound 1 was administered to beagle dogs by oral gavage in a range finding study at doses of 30, 79, 240, or 790 mg/kg. […] Compound 1 was administered at doses of 10, 50, and 150 mg/kg/day in the pivotal repeat dose toxicity studies for 28 days.
as §1

[4] = Sprague-Dawley, plasma, rat PO 20 mg/kg, female, mean
[5] = Sprague-Dawley, plasma, rat PO 20 mg/kg, male, mean
[6] = Sprague-Dawley, plasma, rat PO 60 mg/kg, female, mean
[7] = Sprague-Dawley, plasma, rat PO 60 mg/kg, male, mean
[8] = Sprague-Dawley, plasma, rat PO 200 mg/kg, female, mean
[9] = Sprague-Dawley, plasma, rat PO 200 mg/kg, male, mean

CC(C)(OCc1cc(-c2cccc(OC3CCC3)c2)n(-c2ccccc2N2CCC2)n1)C(=O)O [Compound 1, 2-((1-(2-(azetidin-1-yl)phenyl)-5-(3-cyclobutoxyphenyl)-1H-pyrazol-3-yl)methoxy)-2-methylpropanoic acid]
AUC(0-inf) [1, 4]: 991 µg·h/mL
half-life [1, 4]: 7 h
MRT inf [1, 4]: 10 h
AUC(0-inf) [1, 5]: 168 µg·h/mL
half-life [1, 5]: 3.27 h
MRT inf [1, 5]: 4.54 h
AUC(0-inf) [1, 6]: 1770 µg·h/mL
half-life [1, 6]: 9.1 h
MRT inf [1, 6]: 13.6 h
AUC(0-inf) [1, 7]: 447 µg·h/mL
half-life [1, 7]: 2.92 h
MRT inf [1, 7]: 5.33 h
AUC(0-inf) [1, 8]: 3820 µg·h/mL
half-life [1, 8]: 10.4 h
MRT inf [1, 8]: 15.9 h
AUC(0-inf) [1, 9]: 1110 µg·h/mL
half-life [1, 9]: 3.14 h
MRT inf [1, 9]: 6.01 h
AUC(0-t) ([1]; female, Sprague-Dawley, rat, plasma, po, 20 mg/kg, rat PO 20 mg/kg, female, mean, read-out: AUClast): 885 µg·h/mL
Cmax ([1]; female, Sprague-Dawley, rat, plasma, po, 20 mg/kg, rat PO 20 mg/kg, female, mean, read-out: Cmax): 78.9 µg/mL
Tmax ([1]; female, Sprague-Dawley, rat, plasma, po, 20 mg/kg, rat PO 20 mg/kg, female, mean): 2.67 h
AUC(0-t) ([1]; female, Sprague-Dawley, rat, plasma, po, 20 mg/kg, rat, Female, PO/20 mg/kg, Mean ± SD, read-out: AUC0-24): 885 µg·h/mL
Cmax ([1]; female, Sprague-Dawley, rat, plasma, po, 20 mg/kg, rat, Female, PO/20 mg/kg, Mean ± SD, read-out: Cmax): 78.8 µg/mL
AUC(0-t) ([1]; female, Sprague-Dawley, rat, plasma, po, 60 mg/kg, rat PO 60 mg/kg, female, mean, read-out: AUClast): 1430 µg·h/mL
Cmax ([1]; female, Sprague-Dawley, rat, plasma, po, 60 mg/kg, rat PO 60 mg/kg, female, mean, read-out: Cmax): 113 µg/mL
Tmax ([1]; female, Sprague-Dawley, rat, plasma, po, 60 mg/kg, rat PO 60 mg/kg, female, mean): 4.67 h
AUC(0-t) ([1]; female, Sprague-Dawley, rat, plasma, po, 60 mg/kg, rat, Female, PO/60 mg/kg, Mean ± SD, read-out: AUC0-24): 1430 µg·h/mL
Cmax ([1]; female, Sprague-Dawley, rat, plasma, po, 60 mg/kg, rat, Female, PO/60 mg/kg, Mean ± SD, read-out: Cmax): 113 µg/mL
Tmax ([1]; female, Sprague-Dawley, rat, plasma, po, 60 mg/kg, rat, Female, PO/60 mg/kg, Mean ± SD): 4.7 ± 2.3 h
AUC(0-t) ([1]; female, Sprague-Dawley, rat, plasma, po, 200 mg/kg, rat PO 200 mg/kg, female, mean, read-out: AUClast): 2850 µg·h/mL
Cmax ([1]; female, Sprague-Dawley, rat, plasma, po, 200 mg/kg, rat PO 200 mg/kg, female, mean, read-out: Cmax): 206 µg/mL
Tmax ([1]; female, Sprague-Dawley, rat, plasma, po, 200 mg/kg, rat PO 200 mg/kg, female, mean): 4.67 h
AUC(0-t) ([1]; female, Sprague-Dawley, rat, plasma, po, 200 mg/kg, rat, Female, PO/200 mg/kg, Mean ± SD, read-out: AUC0-24): 2850 µg·h/mL
Cmax ([1]; female, Sprague-Dawley, rat, plasma, po, 200 mg/kg, rat, Female, PO/200 mg/kg, Mean ± SD, read-out: Cmax): 206 µg/mL
Tmax ([1]; female, Sprague-Dawley, rat, plasma, po, 200 mg/kg, rat, Female, PO/200 mg/kg, Mean ± SD): 4.7 ± 1.1 h
AUC(0-t) ([1]; male, Sprague-Dawley, rat, plasma, po, 20 mg/kg, rat PO 20 mg/kg, male, mean, read-out: AUClast): 167 µg·h/mL
Cmax ([1]; male, Sprague-Dawley, rat, plasma, po, 20 mg/kg, rat PO 20 mg/kg, male, mean, read-out: Cmax): 30.6 µg/mL
Tmax ([1]; male, Sprague-Dawley, rat, plasma, po, 20 mg/kg, rat PO 20 mg/kg, male, mean): 1 h
AUC(0-t) ([1]; male, Sprague-Dawley, rat, plasma, po, 20 mg/kg, rat, Male, PO/20 mg/kg, Mean ± SD, read-out: AUC0-24): 167 µg·h/mL
Cmax ([1]; male, Sprague-Dawley, rat, plasma, po, 20 mg/kg, rat, Male, PO/20 mg/kg, Mean ± SD, read-out: Cmax): 30.6 µg/mL
Tmax ([1]; male, Sprague-Dawley, rat, plasma, po, 20 mg/kg, rat, Male, PO/20 mg/kg, Mean ± SD): 1 h
AUC(0-t) ([1]; male, Sprague-Dawley, rat, plasma, po, 60 mg/kg, rat PO 60 mg/kg, male, mean, read-out: AUClast): 445 µg·h/mL
Cmax ([1]; male, Sprague-Dawley, rat, plasma, po, 60 mg/kg, rat PO 60 mg/kg, male, mean, read-out: Cmax): 56.5 µg/mL
Tmax ([1]; male, Sprague-Dawley, rat, plasma, po, 60 mg/kg, rat PO 60 mg/kg, male, mean): 2.67 h
AUC(0-t) ([1]; male, Sprague-Dawley, rat, plasma, po, 60 mg/kg, rat, Male, PO/60 mg/kg, Mean ± SD, read-out: AUC0-24): 445 µg·h/mL
Cmax ([1]; male, Sprague-Dawley, rat, plasma, po, 60 mg/kg, rat, Male, PO/60 mg/kg, Mean ± SD, read-out: Cmax): 56.5 µg/mL
Tmax ([1]; male, Sprague-Dawley, rat, plasma, po, 60 mg/kg, rat, Male, PO/60 mg/kg, Mean ± SD): 2.7 ± 1.2 h
AUC(0-t) ([1]; male, Sprague-Dawley, rat, plasma, po, 200 mg/kg, rat PO 200 mg/kg, male, mean, read-out: AUClast): 1100 µg·h/mL
Cmax ([1]; male, Sprague-Dawley, rat, plasma, po, 200 mg/kg, rat PO 200 mg/kg, male, mean, read-out: Cmax): 115 µg/mL
Tmax ([1]; male, Sprague-Dawley, rat, plasma, po, 200 mg/kg, rat PO 200 mg/kg, male, mean): 4 h
AUC(0-t) ([1]; male, Sprague-Dawley, rat, plasma, po, 200 mg/kg, rat, Male, PO/200 mg/kg, Mean ± SD, read-out: AUC0-24): 1100 µg·h/mL
Cmax ([1]; male, Sprague-Dawley, rat, plasma, po, 200 mg/kg, rat, Male, PO/200 mg/kg, Mean ± SD, read-out: Cmax): 115 µg/mL
Tmax ([1]; male, Sprague-Dawley, rat, plasma, po, 200 mg/kg, rat, Male, PO/200 mg/kg, Mean ± SD): 4 ± 2 h
AUClast/D ([1]; rat PO 20 mg/kg, female, mean): 44231
AUC—% Extrap—obs ([1]; rat PO 20 mg/kg, female, mean): 9.9%
Cmax ([1]; rat PO 20 mg/kg, female, mean, listed as Free Acid, 20 mg/kg): 78.833 µg/mL
AUC—% Extrap—obs ([1]; rat PO 20 mg/kg, male, mean): 0.61%
AUClast/D ([1]; rat PO 60 mg/kg, female, mean): 23759
AUC—% Extrap—obs ([1]; rat PO 60 mg/kg, female, mean): 16.7%
AUClast/D ([1]; rat PO 60 mg/kg, male, mean): 7419
AUC—% Extrap—obs ([1]; rat PO 60 mg/kg, male, mean): 0.477%
AUClast/D ([1]; rat PO 200 mg/kg, female, mean): 14265
AUC—% Extrap—obs ([1]; rat PO 200 mg/kg, female, mean): 22.1%
AUClast/D ([1]; rat PO 200 mg/kg, male, mean): 5525
AUC—% Extrap—obs ([1]; rat PO 200 mg/kg, male, mean): 0.704%
Clinical symptoms ([1]; rats, single oral gavage dose): No abnormal clinical symptoms were observed
NOAEL at 28 days ([2]; male rats, 28 days oral gavage, read-out: NOAEL): 120 mg/kg/day
AUC(0-t) ([2]; po, female rats, 75 mg/kg/day): 3230 µg·h/mL
Cmax ([2]; po, female rats, 75 mg/kg/day): 198 µg/mL
AUC(0-t) ([2]; po, male rats, 120 mg/kg/day): 2780 µg·h/mL
Cmax ([2]; po, male rats, 120 mg/kg/day): 180 µg/mL
NOAEL at 28 days ([2]; female, po): 75 mg/kg/day
NOAEL at 28 days [3]: 150 mg/kg/day

Reference: patent US20250179049A1, “SALTS OF HETEROCYCLIC INHIBITORS OF MONOCARBOXYLATE TRANSPORTER 4 FOR THE TREATMENT OF DISEASE” (Vettore, LLC, priority 2022, published 2025)
